In patent publication EP0214303A1, “DISULFIDE COMPOUNDS AND ANTINEOPLASTIC AGENTS” (priority 1985, dated 1986):

What was measured:
peripheral leukocytes = assay: Effect on the peripheral leucocytes number (WBC4000); type: in vivo, ddY mice; settings: statement in words on Table 2 (image); comparison with control compounds A, B, C, D where stated; intraperitoneal, 4 days after administration
Description: (4) Effect on the peripheral leucocytes number: • Sarcoma 180 solid tumor cells […] were subcutaneously implanted into the right axilla of each mouse (body weight 20 ±2 g) of a group consisting of 5 male mice (ddY strain). 24 hours after implantation, a test compound was intraperitoneally administered to each animal. 4 days after the administration, blood (each 0.02 ml) was collected from the suborbital plexus vein of each tumor-carrying animal. The collected sample of blood was dispersed in 9.98 ml of Cell-Kit Seven solution. One drop of saponin solution was added to the sample to dissolve erythrocytes and then a microcell counter was used to count the number of leucocytes. On graph paper, the number of leucocytes was indicated by an arithmetic scale on the longitudinal axis and the dose of the test compound was indicated by a logarithmic scale on the lateral axis. The relationship between the number of peripheral leucocytes and the dose of the test compound was plotted and the dose (i.e., WBC4000) corresponding to 4000 peripheral leucocytes/mm3 (about half the number of leucocytes of normal mice) was obtained.

[1] = pH 7

Compound	WBC4000 (dosage reducing the peripheral leukocytes to 4000/mm3) (peripheral leukocytes)	other results
COC12C(COC(N)=O)C3=C(C(=O)C(C)=C(NCCCCCCSSCCCCCCNC4=C(C)C(=O)C5=C(C4=O)C(COC(N)=O)C4(OC)C6NC6CN54)C3=O)N1CC1NC12 (stereo not drawn) [Compound 8, 7-N,7'-N'-(dithiodihexamethylene) dimitomycin C]	considerably increased	–
COC12C(COC(N)=O)C3=C(C(=O)C(C)=C(NCCCSSCCCNC4=C(C)C(=O)C5=C(C4=O)C(COC(N)=O)C4(OC)C6NC6CN54)C3=O)N1CC1NC12 (stereo not drawn) [Compound 1, 7-N,7'-N'-(dithioditrimethylene) dimitomycin C]	considerably increased	–
COC12C(COC(N)=O)C3=C(C(=O)C(C)=C(NCCCCCCCCSSCCCCCCCCNC4=C(C)C(=O)C5=C(C4=O)C(COC(N)=O)C4(OC)C6NC6CN54)C3=O)N1CC1NC12 (stereo not drawn) [Compound 10, 7-N,7'-N'-(dithiodioctamethylene) dimitomycin C]	–	solubility (result in words) [1]: scarcely soluble in water
COC12C(COC(N)=O)C3=C(C(=O)C(C)=C(NCCCCSSCCCCNC4=C(C)C(=O)C5=C(C4=O)C(COC(N)=O)C4(OC)C6NC6CN54)C3=O)N1CC1NC12 (stereo not drawn) [Compound 4, 7-N,7'-N'-(dithioditetramethylene) dimitomycin C]	considerably increased	–
CO[C@@]12[C@H](COC(N)=O)C3=C(C(=O)C(C)=C(NCCCCSSC[C@H](N)C(=O)NCC(=O)O)C3=O)N1C[C@@H]1N[C@@H]12 [Compound 27]	–	solubility: > 39 mg/mL
COC12C(COC(N)=O)C3=C(C(=O)C(C)=C(NCCCCSSCC(O)CO)C3=O)N1CC1NC12 (stereo not drawn) [Compound 26, 7-N-[4-(2,3-dihydroxypropyldithio)butyl] mitomycin C]	considerably increased	–
